Patent US20080299118A1, “FXR Agonists for the Treatment of Malignancies” (Wyeth, priority 2007, published 2008)

Experiments:
RECK gene [1] = assay: RECK expression in mouse primary hepatocytes, real-time PCR; type: cell-based; conditions: 1 μM; for RECK expression, fold induction relative to t=0: normalized to GAPDH, p<0.01
Method: Mouse primary hepatocytes were plated at 1.5×10^5 cells per well in 24-well plates and cultured in Williams E medium supplemented with 15 mM HEPES pH 7.4, 1% insulin-transferrin-selenium supplement, 1 nM dexamethasone, 50 U/ml penicillin, and 50 μg/ml streptomycin. Cells were treated with DMSO vehicle or with the FXR agonists, Compound A or Compound B ((E)-3-(2-chloro-4-((3-(2,6-dichlorophenyl)-5-isopropylisoxazol-4-yl)methoxy)styryl)benzoic acid). Cells were harvested at various times after treatment and RNA was prepared for real-time PCR analysis.
RECK expression levels were normalized to GAPDH and the mean level of RECK expression at t=0 was defined as 1.0.

RECK gene [2] = assay: RECK expression in liver of male LDLR deficient mice, real-time PCR of liver RNA; type: in vivo, mouse; conditions: Western diet, 30 mg/kg by gavage once a day for 7 days, liver RNA 4 h after final treatment, p<0.01
Method: Male LDLR deficient mice, fed a Western diet, were administered vehicle or 30 mg/kg Compound A [isopropyl 3-(3,4-difluorobenzoyl)-1,1-dimethyl-1,2,3,6-tetrahydroazepino[4,5-b]indole-5-carboxylate] by gavage once a day for 7 days. Four hours after the final treatment, mice were euthanized and real-time PCR analysis of liver RNA was performed.
RECK expression levels were normalized to GAPDH and the mean level of RECK expression in vehicle treated mice was defined as 1.0. Data are presented as the mean ± standard error of the mean (SEM). 6 mice were tested in each group.

RECK gene [3] = assay: RECK expression in liver of wildtype, FXR deficient and SHP deficient mice, real-time PCR of liver RNA; type: in vivo, mouse; conditions: 30 mg/kg by gavage once a day for 7 days
Method: Wildtype or FXR deficient mice on the C57B1/6 background and wildtype or SHP deficient mice on the 129 background were fed a standard chow diet. Mice were administered vehicle or 30 mg/kg Compound A by gavage once a day for 7 days. Four hours after the final treatment, mice were euthanized and real-time PCR analysis of liver RNA was performed.
RECK expression levels were normalized to GAPDH and the mean level of RECK expression in vehicle treated female C57B1/6 mice was defined as 1.0. Data are presented as the mean ±SEM. 6 mice were tested in each group. […] (p<0.01). […] (p<0.01).

RECK gene [4] = assay: Kinetics of induction of RECK expression in liver after a single dose, wildtype and FXR deficient mice; type: in vivo, mouse; conditions: wildtype mice, single dose 30 mg/kg by oral gavage
Method: Wildtype or FXR deficient male and female mice were administered a single dose of vehicle or 30 mg/kg Compound A by oral gavage. Mice were euthanized at various times after treatment and real-time PCR analysis of liver RNA was performed.
RECK expression levels were normalized to GAPDH, and the mean level of RECK expression at t=0 was defined as 1.0. […] The kinetics of induction of RECK expression by Compound A are consistent with direct induction of RECK expression by FXR activation.

RECK gene [5] = assay: RECK expression in human hepatocytes, real-time PCR; type: cell-based; conditions: 1 μM, 24 hours of treatment, p<0.05
Method: Confluent monolayers of human hepatocytes in 24-well plates, cultured in InVitroGRO HI medium, were treated with DMSO vehicle or Compound A. After 24 hours of treatment, the cells were harvested and RNA was prepared for real time PCR analysis.
RECK expression was normalized to GAPDH, and the mean level of RECK expression in DMSO treated cells was defined as 1.0. The data are presented as the mean ± SEM from triplicate determinations.

RECK expression, fold induction relative to t=0 (RECK gene [1])	RECK expression, fold induction relative to t=0 (RECK gene [4]; liver RNA)	SMILES	Time of peak RECK expression following treatment (RECK gene [1])	RECK expression (normalized to GAPDH, vehicle = 1.0) (RECK gene [2])	RECK expression (normalized to GAPDH) (RECK gene [3]; FXR deficient mice (C57B1/6 background))	RECK expression (normalized to GAPDH) (RECK gene [3]; SHP deficient mice (129 background), p=0.02 in males, p<0.01 in females)	RECK expression (normalized to GAPDH) (RECK gene [3]; male and female wildtype C57B1/6 mice, p<0.01)	Induction of RECK expression, female compared to male (RECK gene [3]; wildtype 129 mice, p<0.01)	Induction of RECK expression, female compared to male (RECK gene [3]; wildtype C57B1/6 mice)	Time after administration at which induction of RECK expression was observed (RECK gene [4]; expression continued to increase at later time points, p<0.01)	RECK expression (normalized to GAPDH, DMSO = 1.0) (RECK gene [5])
induced RECK expression		CC(C)c1onc(-c2c(Cl)cccc2Cl)c1COc1ccc(/C=C/c2cccc(C(=O)O)c2)c(Cl)c1 [Compound B, (E)-3-(2-chloro-4-((3-(2,6-dichlorophenyl)-5-isopropylisoxazol-4-yl)methoxy)styryl)benzoic acid, reference compound]	4 h								
induced RECK expression	induced RECK expression	CC(C)OC(=O)C1=CN(C(=O)c2ccc(F)c(F)c2)CC(C)(C)c2c1[nH]c1ccccc21 [Compound A, isopropyl 3-(3,4-difluorobenzoyl)-1,1-dimethyl-1,2,3,6-tetrahydroazepino[4,5-b]indole-5-carboxylate]	4 h	RECK expression is induced	failed to induce RECK expression	induction of RECK expression was observed	induced expression of the RECK gene	enhanced compared to male 129 mice	Enhanced induction of RECK expression was observed in female compared to male	≤ 2 h	induced expression of the RECK gene
